Among the data in article PMC11995724, “Antibiotic target discovery by integrated phenotypic and activity-based profiling of electrophilic fragments” (Cell chemical biology, 2025) are viability values, retold here.

SMILES strings stand for the structures.

One may read the viability as a read-out of living cells in per cent, often relative to untreated cells.

A short description of the data set: in vitro. Particulars: human, hek293t cells.
On to `O=C(CCl)Nc1nc(-c2cc(F)ccc2F)cs1` [4-L22, 2-chloro-N-[4-(2,5-difluorophenyl)-1,3-thiazol-2-yl]acetamide], for which the viability at 48 h, 25 µM came out at 0.065%.
For the compound `O=C(CCl)N[C@H]1C[C@H](c2ccccc2)C1` [7-D12, 2-chloro-N-[(1r,3r)-3-phenylcyclobutyl]acetamide], the viability at 48 h, 25 µM was found to be 0.742%.
For `CC(Cl)C(=O)N1CC=C(C(F)(F)F)CC1` (stereo not shown) [5-J19, 2-chloro-1-[4-(trifluoromethyl)-1,2,3,6-tetrahydropyridin-1-yl]propan-1-one], the viability at 48 h, 25 µM turned out to be 118%.
The figure for `N#CCCN(C(=O)CCl)c1ccccc1F` [5-P07, 2-chloro-N-(2-cyanoethyl)-N-(2-fluorophenyl)acetamide] is 1.04%; for `C=CC(=O)NCCn1nnnc1C` [2-A03, N-[2-(5-methyl-1H-1,2,3,4-tetrazol-1-yl)ethyl]prop-2-enamide] it is 110%; for `C=CC(=O)N1CCC(C(=O)N(C)Cc2ccon2)CC1` [2-I14, N-methyl-N-[(1,2-oxazol-3-yl)methyl]-1-(prop-2-enoyl)piperidine-4-carboxamide] it is 90.3%.
Take `Cc1cc(C)n(CC2CCN(C(=O)C(C)Cl)CC2)n1` (stereo not shown) [7-P17, 2-chloro-1-{4-[(3,5-dimethyl-1H-pyrazol-1-yl)methyl]piperidin-1-yl}propan-1-one]: the viability at 48 h, 25 µM amounted to 79.8%.
The figure for `CC(Cl)C(=O)N1CCC(Cc2ccncc2)C1` (stereo not shown) [6-N11, 2-chloro-1-{3-[(pyridin-4-yl)methyl]pyrrolidin-1-yl}propan-1-one] is 106%; for `N#CC(=Cc1ccccc1)C(=O)Nc1ccc(N2CCCCC2)cc1` [8-E15, 2-cyano-3-phenyl-N-[4-(piperidin-1-yl)phenyl]prop-2-enamide] it is 64.7%.
Turning to `C=CCNC(=O)C(C#N)=Cc1c(C)nn(-c2ccc(F)cc2)c1Cl` [9-L07, 3-[5-chloro-1-(4-fluorophenyl)-3-methyl-1H-pyrazol-4-yl]-2-cyano-N-(prop-2-en-1-yl)prop-2-enamide], the viability at 48 h, 25 µM was determined as 91.8%.
In the case of `COc1ccc(C=C(C#N)C(=O)Nc2ccccc2Cl)cc1O` [8-C21, N-(2-chlorophenyl)-2-cyano-3-(3-hydroxy-4-methoxyphenyl)prop-2-enamide], the viability at 48 h, 25 µM amounted to 82.8%.
The figure for `COCC(C)n1c(C)cc(C=C(C#N)C(=O)NS(C)(=O)=O)c1C` (stereo not shown) [8-B04, 2-cyano-N-methanesulfonyl-3-[1-(1-methoxypropan-2-yl)-2,5-dimethyl-1H-pyrrol-3-yl]prop-2-enamide] is 94.8%.
To `N#CC(=Cc1cc(C#N)cs1)C(=O)NC(N)=O` [8-F04, {2-cyano-2-[(4-cyanothiophen-2-yl)methylidene]acetyl}urea] belongs 85.8%; to `O=C(CCl)Nc1cc(-n2cnnn2)ccc1Cl` [6-A05, 2-chloro-N-[2-chloro-5-(1H-1,2,3,4-tetrazol-1-yl)phenyl]acetamide], 0.726%.
To `CC(Cl)C(=O)NCCc1c[nH]c2ncccc12` (stereo not shown) [7-C12, 2-chloro-N-(2-{1H-pyrrolo[2,3-b]pyridin-3-yl}ethyl)propanamide] belongs 88.4%.
With `Cc1cc(C=C(C#N)C(N)=O)c(C)n1-c1cccc2ccccc12` [9-I12, 2-cyano-3-[2,5-dimethyl-1-(naphthalen-1-yl)-1H-pyrrol-3-yl]prop-2-enamide], the viability at 48 h, 25 µM is 86.9%.
The figure for `C=CC(=O)N1CCC(C(=O)N(C)CCn2cccn2)CC1` [2-J12, N-methyl-1-(prop-2-enoyl)-N-[2-(1H-pyrazol-1-yl)ethyl]piperidine-4-carboxamide] is 74.5%; for `C=CC(=O)N1CC(c2cc(CO)on2)C1` [1-K20, 1-{3-[5-(hydroxymethyl)-1,2-oxazol-3-yl]azetidin-1-yl}prop-2-en-1-one] it is 103%; for `C=CC(=O)N(c1cc(C)ccc1C#N)C(C)C` [2-A22, N-(2-cyano-5-methylphenyl)-N-(propan-2-yl)prop-2-enamide] it is 111%.
The figure for `Cc1ccccc1-n1c(C)cc(C(=O)CCl)c1C` [10-H20, 2-chloro-1-[2,5-dimethyl-1-(2-methylphenyl)-1H-pyrrol-3-yl]ethan-1-one] is 0.349%; for `Cc1ccc(NC(=O)N2CCN(C(=O)C(C)Cl)CC2)cc1Cl` (stereo not shown) [7-A21, N-(3-chloro-4-methylphenyl)-4-(2-chloropropanoyl)piperazine-1-carboxamide] it is 70.8%; for `CCCCNC(=O)C(C#N)=Cc1ccncc1` [8-P17, N-butyl-2-cyano-3-(pyridin-4-yl)prop-2-enamide] it is 115%.
The figure for `C=CC(=O)N1CCC(Cc2nc(C3CCC3)no2)CC1` [2-A06, 1-{4-[(3-cyclobutyl-1,2,4-oxadiazol-5-yl)methyl]piperidin-1-yl}prop-2-en-1-one] is 93%; for `N#CC(=Cc1ccc([N+](=O)[O-])cc1)C(=O)Nc1ccc(Cl)cc1` [8-O11, N-(4-chlorophenyl)-2-cyano-3-(4-nitrophenyl)prop-2-enamide] it is 82.6%; for `CC(C)NS(=O)(=O)c1ccc(NC(=O)C(C)Cl)cc1` (stereo not shown) [6-B10, 2-chloro-N-{4-[(propan-2-yl)sulfamoyl]phenyl}propanamide] it is 98.5%.
`C=CC(=O)N(Cc1cccc(Cl)c1F)C(C)C1CCOCC1` (stereo not shown) [1-F04, N-[(3-chloro-2-fluorophenyl)methyl]-N-[1-(oxan-4-yl)ethyl]prop-2-enamide]: the viability at 48 h, 25 µM is 58.7%.
To `O=C(CCl)Nc1cc(S(=O)(=O)N2CCOCC2)ccc1O` [6-J12, 2-chloro-N-[2-hydroxy-5-(morpholine-4-sulfonyl)phenyl]acetamide] belongs 116%; to `CCCCNC(=O)C(C#N)=Cc1cccs1` [9-E17, N-butyl-2-cyano-3-(thiophen-2-yl)prop-2-enamide], 117%.
In the case of `CC(Cl)C(=O)NCCS(=O)(=O)Nc1ccccn1` (stereo not shown) [7-L05, 2-chloro-N-{2-[(pyridin-2-yl)sulfamoyl]ethyl}propanamide], the viability at 48 h, 25 µM worked out at 103%.
`O=C(CCl)NCCc1c[nH]c2c(F)c(F)c(F)cc12` [7-H16, 2-chloro-N-[2-(5,6,7-trifluoro-1H-indol-3-yl)ethyl]acetamide]: the viability at 48 h, 25 µM was determined as 1.21%.
In the case of `COc1cc(C=C(C#N)C(=O)Nc2c(C)cc(C)cc2C)cc(OC)c1` [8-A18, 2-cyano-3-(3,5-dimethoxyphenyl)-N-(2,4,6-trimethylphenyl)prop-2-enamide], the viability at 48 h, 25 µM was found to be 26.3%.
To `Cc1cccc(N(Cc2ccccc2)C(=O)CCl)c1` [6-O07, N-benzyl-2-chloro-N-(3-methylphenyl)acetamide] belongs 0.964%; to `CC(Cl)C(=O)Nc1sc2c(c1C(N)=O)CCC2` (stereo not shown) [6-A21, 2-(2-chloropropanamido)-4H,5H,6H-cyclopenta[b]thiophene-3-carboxamide], 119%.
As to `C=CC(=O)NCCCN1CCCS1(=O)=O` [3-H19, N-[3-(1,1-dioxo-1lambda6,2-thiazolidin-2-yl)propyl]prop-2-enamide], the viability at 48 h, 25 µM was 88.4%.
The figure for `C=CC(=O)N(C)Cc1noc(C2CC2)n1` [2-N17, N-[(5-cyclopropyl-1,2,4-oxadiazol-3-yl)methyl]-N-methylprop-2-enamide] is 60.3%; for `O=C(CCl)c1ccc(F)c(F)c1` [10-L13, 2-chloro-1-(3,4-difluorophenyl)ethan-1-one] it is 95.7%.
The figure for `O=C(CCl)N1CCN(C(=O)c2cn(C3CC3)nn2)CC1` [5-D03, 2-chloro-1-[4-(1-cyclopropyl-1H-1,2,3-triazole-4-carbonyl)piperazin-1-yl]ethan-1-one] is 2.35%; for `C=CC(=O)Nc1conc1-c1ccccc1` [1-I09, N-(3-phenyl-1,2-oxazol-4-yl)prop-2-enamide] it is 59.1%; for `Cc1ccc(N(C(=O)CCl)C2C=CS(=O)(=O)C2)cc1` (stereo not shown) [5-K13, 2-chloro-N-(1,1-dioxo-2,3-dihydro-1lambda6-thiophen-3-yl)-N-(4-methylphenyl)acetamide] it is 0.562%.
The figure for `C=CC(=O)N1CCN(C(=O)c2cc(C)no2)CC1` [1-N19, 1-[4-(3-methyl-1,2-oxazole-5-carbonyl)piperazin-1-yl]prop-2-en-1-one] is 102%.
As for `CC(=O)NC1(c2nc(C)cs2)CCN(C(=O)C(C)Cl)C1` (stereo not shown) [7-O06, N-[1-(2-chloropropanoyl)-3-(4-methyl-1,3-thiazol-2-yl)pyrrolidin-3-yl]acetamide], the viability at 48 h, 25 µM is 114%.
Turning to `CC(Cl)C(=O)NCc1ncn(Cc2cccc(F)c2)n1` (stereo not shown) [7-K03, 2-chloro-N-({1-[(3-fluorophenyl)methyl]-1H-1,2,4-triazol-3-yl}methyl)propanamide], the viability at 48 h, 25 µM stood at 111%.
For `C=CC(=O)NC(Cn1ccnc1)c1ccccc1` (stereo not shown) [2-M06, N-[2-(1H-imidazol-1-yl)-1-phenylethyl]prop-2-enamide], the viability at 48 h, 25 µM came out at 84.5%.
To `Cc1ccc(NC(=O)C(C#N)=CC2=Cc3ccccc3OC2)cc1` [9-B19, 3-(2H-chromen-3-yl)-2-cyano-N-(4-methylphenyl)prop-2-enamide] belongs 119%; to `CC(Cl)C(=O)N1CCCC(CC(=O)OC(C)(C)C)CC1` (stereo not shown) [6-P18, tert-butyl 2-[1-(2-chloropropanoyl)azepan-4-yl]acetate], 93.9%.
The figure for `C=CC(=O)NCc1cccc(C(C)(F)F)c1` [3-O22, N-{[3-(1,1-difluoroethyl)phenyl]methyl}prop-2-enamide] is 136%.
The figure for `CC1CN(C(=O)C(C)Cl)CC(C)O1` (stereo not shown) [5-F04, 2-chloro-1-(2,6-dimethylmorpholin-4-yl)propan-1-one] is 96.1%; for `C=CC(=O)N1CCC(C(=O)Nc2cc(Cl)ccc2SCC)CC1` [1-E06, N-[5-chloro-2-(ethylsulfanyl)phenyl]-1-(prop-2-enoyl)piperidine-4-carboxamide] it is 111%.
As for `C=CC(=O)NCC1(n2ccnn2)CC1` [2-L19, N-{[1-(1H-1,2,3-triazol-1-yl)cyclopropyl]methyl}prop-2-enamide], the viability at 48 h, 25 µM was 45.7%.
